Data: patent US6177409A, “Method for the site specific synthesis of novel 3-hydroxypyridin-4(1H)ons derivatives from aminomonosaccharides or aminoitols, products obtained by this method and their applications” (priority 1996, dated 2001)

Assays:
in vivo = conditions: mouse, in vivo
Procedure: (§1) The samples are put in a solution either in water or in a mixture of water-DMSO (3:2; v/v) so as to obtain solutions of varying concentrations,either lower than or equal to 130 g·L^-1; the volumes injected are calculated on the basis of 0.2 mL for a mouse body weight of 20 g.
(§2) The toxicity is evaluated starting from aqueous solutions, either buffered or not with NaH2 PO4 or else with Na2 HPO4, or else after addition of a stoichiometric quantity of NaHCO3.
(§3) The 2-methyl-3-hydroxypyridine-4(1H)-one derivatives of glycerol (14), of xylitol (17), of mono-acetone xylose (12) and of solketal (11) were injected by I. V. route.
(§4) The 2-methyl-3-hydroxypyridine-4(1H)-one compound of diacetone xylitol (10) was injected by I. P. route.

mice = experiment: in vivo
Procedure: as §1, §2, §3, §4

[1] = male and female mice, I.V., (maximum solubility)

Cc1c(O)c(=O)ccn1CC1OC(C)(C)OC1C1COC(C)(C)O1 (centres unmarked) [Compound 10, 1-(2',3': 4',5'-di-O-isopropylidene-xylityl)-2-methyl-3-hydroxypyridine-4(1H)-one]
LD50 (in vivo; ip, LD50): > 650 mg/kg | toxicity compared with L1 (mice; mice): weaker toxicity than L1 | Macroscopic lesions of visceral organs (mice; mouse, in vivo, ip): No visceral organ presented macroscopic lesions | Mortality (number of mice) (mice; mouse, in vivo, ip, 325 mg/kg): 0 | Secondary effects (mice; mouse, in vivo, ip, 325 mg/kg): none (5/5) | Mortality (number of mice) (mice; mouse, in vivo, ip, 650 mg/kg): 0 | Secondary effects (mice; mouse, in vivo, ip, 650 mg/kg): none (5/5) | solubility at the doses studied (Solubility in water; acute toxicity doses, compared with L1): less soluble at the doses studied | solubility in water (Solubility in water; water): weak

Cc1c(O)c(=O)ccn1CC1COC(C)(C)O1 (centres unmarked) [Compound 11, 1-(2',3'-O-isopropylidene-glyceryl)-2-methyl-3-hydroxypyridine-4(1H)-one]
LD50 (in vivo; iv, LD50 ± SD): 817 ± 75 mg/kg | toxicity compared with L1 (mice; mice): toxicity higher than that of L1 | LD50 ± SD (mice; mouse, in vivo, iv): 745 ± 84 mg/kg | neurophysiological effects (mice; mouse, in vivo, iv): induces adverse neurophysiological effects | Mortality (number of mice) (mice; mouse, in vivo, iv, 500 mg/kg): 0 | Mortality times (mice; mouse, in vivo, iv, 650 mg/kg): 3 min | Mortality (number of mice) (mice; mouse, in vivo, iv, 800 mg/kg): 2 | Mortality (number of mice) (mice; mouse, in vivo, iv, 1000 mg/kg): 4 | Secondary effects (mice; mouse, in vivo, iv, 1000 mg/kg): 1 min. convulsive phase followed by 10 min. of drop in spontaneous activity (10/10) | Mortality (number of mice) (mice; mouse, in vivo, iv, 1300 mg/kg): 5 | Mortality times (mice; mouse, in vivo, iv, 1300 mg/kg): 30-90 | Secondary effects (mice; mouse, in vivo, iv, 1300 mg/kg): death preceded by a marked convulsive phase (10/10)

Cc1c(O)c(=O)ccn1C[C@H]1O[C@@H]2OC(C)(C)O[C@@H]2[C@H]1O [Compound 12, 1-(1',2'-O-isopropylidene-α-D-xylofuranose-5-yl)-2-methyl-3-hydroxypyridine-4-(1H)-one]
LD10 (mice; female mice, I.V.): 1000 mg/kg | Acute toxicity in mice (mice; male mice, I.V.): totally innocuous at 1300 mg.kg^-1 | toxicity compared with L1 (mice; mice): less toxic than L1 | first toxic effects (=LD10) (mice; mice, I.V.): 1300 mg/kg | Cause of death (mice; mouse, in vivo, iv, 1000 mg/kg): respiratory deficiency | Mortality times (mice; mouse, in vivo, iv, 1000 mg/kg): 4 min | Mortality times (mice; mouse, in vivo, iv, 1300 mg/kg): 360 to 1080 min

Cc1c(O)c(=O)ccn1CC(O)CO (centres unmarked) [Compound 14, 1-glyceryl-2-methyl-3-hydroxypyridine-4(1H)-one]
Mortality (number of mice) (mice; female, I.V., 1300 mg/kg, water 60/DMSO 40, 5 mice): 0 | Mortality (number of mice) (mice; female, I.V., 1300 mg/kg, water, 5 mice): 0 | Acute toxicity in mice (mice; [1]): totally innocuous at 1300 mg.kg^-1 | Mortality (number of mice) (mice; male, I.V., 1300 mg/kg, water 60/DMSO 40, 5 mice): 0 | Mortality (number of mice) (mice; male, I.V., 1300 mg/kg, water, 5 mice): 0 | toxicity at 1300 mg/kg (mice; mice, I.V., 1300 mg.kg^-1, running text): non-toxic | solubility (Solubility in water; water): > 130 mg/mL

Cc1c(O)c(=O)ccn1CC(O)C(O)C(O)CO (centres unmarked) [Compound 17, 1-xylityl-2-methyl-3-hydroxypyridine-4(1H)-one]
Acute toxicity in mice (mice; [1]): totally innocuous at 1000 mg.kg^-1 | toxicity compared with L1 (mice; mice): less toxic than L1 | first toxic effects (=LD10) (mice; mice, I.V.): 1300 mg/kg | Onset of significant decrease in spontaneous activity after injection (mice; mouse, in vivo, iv): ~2 h | Mortality (number of mice) (mice; mouse, in vivo, iv, 650 mg/kg): 0 | Secondary effects (mice; mouse, in vivo, iv, 650 mg/kg): none (5/5) | Mortality (number of mice) (mice; mouse, in vivo, iv, 1000 mg/kg): 0 | Secondary effects (mice; mouse, in vivo, iv, 1000 mg/kg): none (5/5) | Mortality (number of mice) (mice; mouse, in vivo, iv, 1300 mg/kg): 0

Cc1c(O)c(=O)ccn1C [Compound L1, 1.2-dimethyl-3-hydroxypyridine-4(1H)-one, reference compound]
mortality (in vivo; 1300 mg/kg): 100% | Secondary effects (mice; mouse, in vivo, ip, 650 mg/kg, pH 7): spontaneous decrease in activity xx min. before death (5/5) | Secondary effects (mice; mouse, in vivo, iv, 325 mg/kg, pH 2.5): irritation at injection, spontaneous decrease in activity 2-4 min. (5/5)
